From patent EP4741383A1, “COMPOUND AND USE THEREOF AS ANTI-CANCER DRUG” (Tyligand Bioscience (Shanghai) Limited, priority 2023, dated 2025)

Tests used:
[1] = test system: Jurket; assay: CellTiter-Glo cell proliferation inhibition, Jurket; format: cell-based; conditions: Jurket (acute leukemia cell line), 72 hours; read-out: Example IC50 (µM) Jurket
Source text: (§1) This experiment used the CellTiter-Glo® Luminescent Cell Viability Assay kit from Promega to evaluate the inhibitory activity of the disclosed compounds on the proliferation of the following cell lines: 4T1 (mouse breast cancer cell line), A20 (mouse B-cell lymphoma cell line), A2780 (human ovarian cancer cell line), AsPC-1 (pancreatic cancer cell line), B16F10 (mouse melanoma cell line), BT549 (human breast cancer cell line), CT26 (mouse colon cancer cell line), EMT6 (mouse breast cancer cell line), HCT116 (colorectal cancer cell line), Jurket (acute leukemia cell line), KP-4 (pancreatic cancer cell line), LL/2 (mouse lung cancer cell line), MCF7 (breast cancer cell line), […] NCI-H358 (lung cancer cell line), NCI-H727 (gastric cancer cell line), NCI-1944 (lung cancer cell line), Pan 04.03 (pancreatic cancer cell line), SK-BR-3 (breast cancer cell line), THP-1 (leukemia cell line), TOV21G (ovarian cancer cell line), U87MG (glioblastoma cell line), and UM-UC-a (bladder cancer cell line). […]
(§2) Cells were cultured according to the instructions provided by the cell supplier (Nanjing Kebai Biotechnology Co., Ltd.). […] Suspension or adherent cells were collected, and cell viability was determined using the trypan blue exclusion method, ensuring that cell viability was above 90%. […]

[2] = test system: NCI-1944; assay: CellTiter-Glo cell proliferation inhibition, NCI-1944; format: cell-based; conditions: NCI-1944 (lung cancer cell line), 72 hours; read-out: Example IC50 (µM) NCI-1944
Source text: as §1, §2

[3] = test system: Pan 04.03; assay: CellTiter-Glo cell proliferation inhibition, Pan 04.03; format: cell-based; conditions: Pan 04.03 (pancreatic cancer cell line), 72 hours; read-out: Example IC50 (µM) Pan 04.03
Source text: as §1, §2

[4] = test system: MKN45; assay: CellTiter-Glo cell proliferation inhibition, MKN45; format: cell-based; conditions: MKN-45; MKN45 (mouse B-cell lymphoma cell line), 72 hours; read-out: Example IC50 (µM) MKN45
Source text: as §1, §2

[5] = test system: UM-UC-a; assay: CellTiter-Glo cell proliferation inhibition, UM-UC-a; format: cell-based; conditions: UM-UC-a (bladder cancer cell line), 72 hours; read-out: Example IC50 (µM) UM-UC-a
Source text: as §1, §2

[6] = J. Med. Chem. 2014, 57, 6594-6609; cited from earlier work

IC50 [4] [µM] | SMILES | IC50 [1] [µM] | IC50 [2] [µM] | IC50 [3] [µM] | IC50 [5] [µM] | oral bioavailability [6] [%]
0.326 | O=C(Nc1ccc(-c2csc(CO)c2)cc1)C(=O)Nc1ccc(-c2cc3cc(F)c(-c4nnn[nH]4)cc3n2C2CCC2)cc1 [Example 1] | 0.165 | 0.112 | 0.34 | 0.193 | –
– | Cn1c(-c2cccc(NC(=O)C(=O)Nc3ccc(-c4ccsc4)cc3)c2)c(I)c2cc(C(=O)O)c(O)cc21 [Example 11a-1, reference compound] | – | – | – | – | 0.07
